Key:
Format in all cases: cell-based
[1] = test system: chondrospheres from primary sheep chondrocytes; assay: Histological analysis on semi-thin sections of tissue spheroids (toluidine blue)
Method: Tissue spheroids were fixed with 2.5% glutaraldehyde/PBS and then treated with 1% osmium tetraoxide/PBS. The samples were dehydrated by soaking in a series of solutions of increasing concentrations of ethanol, stained with 1% uranyl acetate/70% ethanol and finally embedded to araldite-epon mixture. Semi-thin sections were prepared on a LKB-III ultratome (Sweden), stained with 1% toluidine blue and then examined using a light microscope (Leica DM 2500, Germany) equipped with a digital camera (Leica DFC 290, Germany).
A histological analysis on semi-thin sections of 3-day-old tissue spheroids was performed in order to estimate possible toxic effects and to determine an optimal nontoxic Gd3+ concentration (FIG. 3a). […] Scale bar—100μm.

[2] = test system: chondrospheres from primary sheep chondrocytes; assay: Tissue spheroid viability, CellTiter-Glo 3D (cytoplasmic ATP luminescence); settings: 24 hours of incubation
Method: The viability of tissue spheroids was assessed using the CellTiter-Glo 3D kit according to the manufacturer protocol. Briefly, 3-day-old tissue spheroids with a starting cell number of 8000 cells were placed in 0, 50 and 250 mM Gd3+ concentrations for 24 hours. Then CellTiter-Glo 3D kit was added and luminescence was recorded after 30 min incubation using VICTOR X3 Multilabel Plate Reader (Perkin Elmer, USA).
(§1) The viability of cells within tissue spheroids was analyzed by measuring the luminescent signal generated by luciferin-luciferase interconnection as a function of cytoplasmic ATP concentration. […] The highly statistically significant difference (p<0.0005) in cell density corresponded to 85% in 50 mM Gd3+ solution compared to 100% in 0 mM Gd3+ solution, while the cell density at 250mM Gd3+ concentration was 40% (FIG. 3c).

[3] = test system: chondrospheres from primary sheep chondrocytes; assay: Estimation of spheroid cell density by cell counting on semi-thin sections
Method: Spheroid cell density was estimated by analysis of semi-thin sections of tissue spheroids using Image J 1.48v software (NIH, Bethesda, Md., USA).
as §1

[4] = test system: chondrospheres from primary sheep chondrocytes; assay: Mechanical testing of tissue spheroids (parallel-plate compression, Microsquisher); settings: for elastic modulus of spheroids: 24 hours, 0 mM control 2.91±0.15 kPa
Method: The mechanical properties of tissue spheroids were measured by a micro-scale parallel-plate compression testing system Microsquisher (CellScale, Canada) with associated SquisherJoy software. Tissue spheroids with a starting cell number of 8000 cells were formed using Corning spheroid microplates. They were cultured 3 days and then placed in 0, 50 and 18 250 mM Gd3+ concentrations for 24 hours prior to mechanical characterization. For mechanical testing spheroids were placed in a PBS-filled bath at 37° C. and compressed to 50% deformation in 20 sec. The microbeams with diameters 152.4 μm (recommended max force […]) and 304.8 μm (recommended max force […]) were employed depending on the stiffness and sensitivity required to measure tissue spheroids from different cell types. The force-displacement data obtained from the compression test were converted to stress-strain curves and the lower portion of the curve (0-20% strain) was used to obtain a linear regression line and estimate the Young's modulus. In each group eight samples of spheroids were measured.
The influence of gadolinium Gd3+ on mechanical properties of tissue spheroids was estimated by tensiometry using parallel plates modification. […] The values of elastic modulus of spheroids in 0 and 50 mM Gd3+ solutions were 2.91±0.15 kPa and 18 2.95±0.1 kPa, correspondingly. […] This observation can be explained by low viability of tissue spheroids in 250 mM Gd3+ solution.
The sharp rise of the curve in the area of high strain values is associated with an increase of the tissue spheroid cross section. […] The stress-strain curve changes practically linearly before this strain; in this section we calculated the Young's modulus.

[5] = test system: chondrospheres from primary sheep chondrocytes; assay: Spheroid fusion assay (spheroid doublets)
Method: Spheroid fusion assay was performed using Corning spheroid microplates (Corning, cat.# 4520). Pairs of 3-day-old tissue spheroids with a starting cell number of 8000 cells were placed in contact in 0, 50 and 250 mM Gd3+ concentrations and incubated for 7 days. Bright-field images of spheroid doublets were obtained at points 0 h, 4 h, 6 h, 1 day, 2 days, 3 days, 4 days and 7 days using Nikon Eclipse Ti-S microscope. Contact length, intersphere angle and doublet length were measured using Image J 1.48v software (NIH, Bethesda, Md., USA) and plotted as a function of time using GraphPad Prism software (GraphPad Software, Inc., La Jolla, Calif.). Doublet length (FIG. 5) was normalized to initial doublet length. Measurements for each parameter were reported as mean ±S.E.M.
To investigate the fusion of tissue spheroids at different Gd3+ concentrations, the pairs of spheroids were placed in contact with each other in the same well of low adhesion microplate and allowed to fuse for 7 days. The kinetics of tissue spheroid fusion was monitored and analyzed daily at bright-field under inverted microscope. Contact length, intersphere angle and doublet length were measured. […] Spheroid doublet in 0 mM Gd3+ solution shortened faster than spheroid doublet in 50 mM Gd3+ solution.

[6] = test system: chondrospheres from primary sheep chondrocytes; assay: Fusion of 30 chondrospheres into a microtissue construct in non-adhesive microplate
Method: To check the possibility of microtissue construct biofabrication at different concentrations of Gd3+, 30 chondrospheres were placed in the same well of non-adhesive microplate and allowed fusion for 48 hours (FIG. 5c). […] Scale bar −500 μm.

CNC(=O)CN(CCN(CCN(CC(=O)[O-])CC(=O)NC)CC(=O)[O-])CC(=O)[O-].[Gd+3] [Gd3+, Gadodiamide]
cell density (histology, qualitative) ([1]; 50 mM Gd3+ solution): cell density did not change
cytoplasm staining ([1]; 50 mM Gd3+ solution): slightly reduced
toxic effect on chondrospheres morphology ([1]; 250 mM Gd3+, 3-day-old spheroids, toluidine blue staining): severe toxic effect
cell density (histology, qualitative) ([1]; 250 mM Gd3+, cell death and apoptosis, pycnotic nuclei, extracellular debris): cell density dramatically reduced
viability of tissue spheroids ([2]; 50 mM Gd3+): remained viable
viability of tissue spheroids ([2]; 250 mM Gd3+): significant toxic effect
cell density compared to 100% in 0 mM Gd3+ solution ([3]; 50 mM Gd3+ solution): 85%
cell density compared to 100% in 0 mM Gd3+ solution ([3]; 250 mM Gd3+): 40%
effect on tissue spheroids Young's modulus ([4]; 50 mM Gd3+ in the growth medium): does not affect
elastic modulus of spheroids ([4]; 50 mM Gd3+): 2.95±0.1 kPa
decrease of Young's modulus ([4]; 250 mM Gd3+): ~93%
elastic modulus of spheroids ([4]; 250 mM Gd3+): 0.14±0.05 kPa
fusion of spheroid pair (contact length, intersphere angle, doublet length) ([5]; 50 mM Gd3+, up to 7 days): contact lengths and intersphere angles increased as a function of time and doublet lengths shortened gradually
cytotoxicity ([5]; 250 mM Gd3+): high cytotoxicity
fusion of spheroid pair ([5]; 250 mM Gd3+, up to 7 days): continued to fuse during first 24 hours and then no further progressive aggregation was observed
intersphere angle ([5]; seventh day of incubation, follows the 0 and 50 mM Gd3+ results, concentration not restated, indicates complete fusion): 179 °
construct formation from 30 chondrospheres ([6]; 50 mM Gd3+, 2 days of incubation): formation of compact constructs was observed
construct formation from 30 chondrospheres ([6]; 250 mM Gd3+, 48 hours): no constructs were formed
